{"source": "patent US20090275567A1", "about": "“2-HETEROCYCLOAMINO-4-IMIDAZOLYLPYRIMIDINES AS AGENTS FOR THE INHIBITION OF CELL PROLIFERATION” (priority 2006, published 2009)", "target": "T1, CDK2/Cyclin E (Homo sapiens, UniProt P24941)", "T1 construct": "made in house; host or cells: Sf21 (Spodoptera frugiperda) insect cells, baculovirus co-infection; the GST-Rb substrate was made in E. coli BL21 (DE3) pLysS", "experiment": "in vitro kinase assay (Scintillation Proximity Assay), CDK2/Cyclin E, GST-Rb substrate", "assay_type": "biochemical", "conditions": "CDK2/Cyclin E partially-purified enzyme, 0.2 μM ATP, read-out: CDK2 inhibitory activity IC50", "description": "The compounds were tested in an in vitro kinase assay in 96 well format using Scintillation Proximity Assay (SPA—obtained from Amersham) for measuring incorporation of [γ-33-P]-Adenosine Triphosphate into a test substrate (GST-Retinoblastoma protein; GST-Rb). In each well was placed the compound to be tested (diluted in DMSO and water to correct concentrations) and in control wells either roscovitine as an inhibitor control or DMSO as a positive control. […]\nThe plates were sealed with Topseal-S plate sealers, left for two hrs then spun at 2500 rpm, 1124×g., for 5 mins. The plates were read on a Topcount for 30 seconds per well. […]\nE. coli paste was resuspended in 10 ml/g of NETN buffer (50 mM Tris pH 7.5, 120 mM NaCl, 1 mM EDTA, 0.5% v/v NP-40, 1 mM PMSF, 1 ug/ml leupeptin, 1 ug/ml aprotinin and 1 ug/ml pepstatin) and sonicated for 2×45 seconds per 100 ml homogenate. […] The final product was analysed by Sodium Dodeca Sulfate (SDS) PAGE (Polyacrylamide gel) using 8-16% Tris-Glycine gels (Novex, San Diego, USA).\nThe open reading frames of CDK2 and Cyclin E were isolated by reverse transcriptase-PCR using HeLa cell and activated T cell mRNA as a template and cloned into the insect expression vector pVL1393 (obtained from Invitrogen 1995 catalogue number: V1392-20). […]", "note": "pIC50: −log10 of the molar value."}
{"smiles": "CC(=O)N1CCC(Nc2nccc(-c3cnc(C)n3C(C)C)n2)CC1", "note": "[Example 29, 1-[4-[[4-(2-Methyl-3-propan-2-yl-imidazol-4-yl)pyrimidin-2-yl]amino]-1-piperidinyl]ethanone]", "values": [{"measurement": "pIC50", "value": 7.02}]}
